Experimental data: PubChem BioAssay AID743319 (Broad Institute, 2014)
Activity calls are given as the source filed them.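 How the source made its calls: active means fitted curve reaches 200% activation at or below the highest valid dose tested for that compound; inconclusive means flat fit between 30 and 70% activation, or unreliable fit; inactive means the rest.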

What follows are molecules tested against Endoplasmic reticulum aminopeptidase 2 (Homo sapiens) (UniProt Q6P179) (assay: ERAP2 activation by compounds, dose response, selectivity assay for selective ERAP1 modulator project, biochemical, fluorescence plate reader, cherry-picked samples (AID 743319)). Settings: recombinant ERAP2, Arg-AMC cleavage fluorescence, 1 h.
Sequence of Endoplasmic reticulum aminopeptidase 2 (Homo sapiens) (Q6P179 whole entry, looked up): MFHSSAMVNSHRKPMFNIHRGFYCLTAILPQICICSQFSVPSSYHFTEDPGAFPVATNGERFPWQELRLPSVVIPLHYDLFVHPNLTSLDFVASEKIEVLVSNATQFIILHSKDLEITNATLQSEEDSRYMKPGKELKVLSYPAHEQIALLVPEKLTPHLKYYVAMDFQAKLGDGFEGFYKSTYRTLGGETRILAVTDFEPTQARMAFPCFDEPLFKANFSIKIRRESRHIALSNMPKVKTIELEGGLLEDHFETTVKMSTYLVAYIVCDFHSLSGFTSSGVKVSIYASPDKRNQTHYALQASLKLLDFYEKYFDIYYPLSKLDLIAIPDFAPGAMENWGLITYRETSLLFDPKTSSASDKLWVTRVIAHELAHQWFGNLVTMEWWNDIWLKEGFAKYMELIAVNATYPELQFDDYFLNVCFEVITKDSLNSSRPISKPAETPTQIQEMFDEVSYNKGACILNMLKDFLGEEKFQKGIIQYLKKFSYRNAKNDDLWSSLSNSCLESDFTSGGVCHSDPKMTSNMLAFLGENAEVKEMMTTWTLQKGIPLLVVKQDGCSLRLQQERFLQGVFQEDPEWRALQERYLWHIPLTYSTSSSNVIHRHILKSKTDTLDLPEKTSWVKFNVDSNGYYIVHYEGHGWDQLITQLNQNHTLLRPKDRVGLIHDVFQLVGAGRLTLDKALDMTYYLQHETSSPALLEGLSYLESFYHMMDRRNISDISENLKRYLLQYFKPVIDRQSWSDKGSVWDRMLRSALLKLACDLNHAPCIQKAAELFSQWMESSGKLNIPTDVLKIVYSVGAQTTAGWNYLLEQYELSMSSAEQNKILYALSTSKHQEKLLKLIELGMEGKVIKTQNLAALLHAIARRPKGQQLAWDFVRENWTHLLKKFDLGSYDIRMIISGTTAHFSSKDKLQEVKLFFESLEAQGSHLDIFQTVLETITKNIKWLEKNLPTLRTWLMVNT

Row | Compound | AC200
1 | Cc1cc(=O)oc2cc(OCC(=O)N3CCN(C(C)c4ccccc4)CC3)c(Cl)cc12 (centres undefined) | 3960 nM
2 | C/C(=N\NC(=O)CC#N)c1cc2ccc(O)cc2oc1=O | 2300 nM
3 | COC(=O)[C@@H]1[C@@H](CO)[C@@H]2Cn3c(ccc(/C=C/c4ccccc4)c3=O)[C@H]1N2C(=O)C1CCC1 | 2170 nM
4 | COc1cc2cc(C(=O)N3CCN(Cc4ccc5c(c4)OCO5)CC3)c(=O)oc2cc1OC | > 5600 nM (inactive)
5 | N#Cc1c(N)n(CCNC(=O)c2ccccc2)c2nc3ccccc3nc12 | 4630 nM
6 | COc1ccc(-c2cc3ccc(O)cc3oc2=O)cc1OC | 1880 nM
7 | O=c1ccc2cc(O[C@@H]3O[C@@H](CO)[C@H](O)[C@@H](O)[C@@H]3O)c(O)cc2o1 | 744 nM
8 | Cc1cc(=O)oc2cc(NS(=O)(=O)c3ccc(F)cc3)ccc12 | 2110 nM
9 | CN1CCCC1CCNc1ccc2c(=O)c3ccccc3oc2c1 (centres undefined) | 1140 nM
10 | CCc1c(C)c2cc(Cl)c(O)c(CN(C)C)c2oc1=O | 803 nM
11 | CC(=O)N1[C@@H]2Cn3c(ccc(/C=C/c4ccccc4)c3=O)[C@H]1[C@@H](C(=O)NCC1CC1)[C@@H]2CO | 2500 nM
12 | CCCN1[C@@H]2Cn3c(ccc(/C=C/c4ccccc4)c3=O)[C@H]1[C@@H](C(=O)NCc1ccccn1)[C@@H]2CO | 2260 nM
13 | CCCN1[C@@H]2c3ccc(/C=C/c4ccccc4)c(=O)n3C[C@H]1[C@H](CO)[C@H]2C(=O)NCc1ccccn1 | 2190 nM
14 | COC(=O)Cc1c(C)c2ccc(O)c(CNCc3ccc(OC)c(OC)c3)c2oc1=O | 1010 nM
15 | CCNC(=O)[C@@H]1[C@@H](CO)[C@@H]2Cn3c(ccc(/C=C/c4ccccc4)c3=O)[C@H]1N2C(=O)C1CCCC1 | 1590 nM
16 | COc1cccc(CN(C)Cc2cc(=O)oc3cc(O)c(Cl)cc23)c1 | 1620 nM
17 | C[C@@H]1CCCCO[C@@H](CN(C)C(=O)CCC(F)(F)F)[C@@H](C)CN([C@@H](C)CO)C(=O)c2cc(NS(=O)(=O)c3ccc(Cl)cc3)ccc2O1 | > 10000 nM (inactive)
18 | CCCCc1cc(=O)oc2cc(O)ccc12 | 3980 nM
19 | COCC(=O)N1[C@@H]2Cn3c(ccc(/C=C/c4ccccc4)c3=O)[C@H]1[C@@H](C(=O)N1CCOCC1)[C@@H]2CO | 1550 nM
20 | Cc1c(O)ccc2c(CN3CCN(Cc4ccccc4)CC3)cc(=O)oc12 | 5190 nM
21 | Cc1c(O)ccc2cc(S(=O)(=O)c3ccccc3)c(=O)oc12 | 860 nM
22 | CC(=O)N1[C@@H]2c3ccc(/C=C/c4ccccc4)c(=O)n3C[C@H]1[C@H](CO)[C@H]2C(=O)N1CCOCC1 | 2030 nM
23 | Cc1cc(=O)oc2c(CN3CCCC3)c(O)c(Cl)cc12 | 1400 nM
24 | CC(=O)N1[C@@H]2c3ccc(/C=C/c4ccccc4)c(=O)n3C[C@H]1[C@H](CO)[C@H]2C(=O)N(C)C | 1570 nM
25 | Cc1ccc(S(=O)(=O)c2cc3ccc(O)cc3oc2=O)cc1C | 721 nM
26 | CCN1[C@@H]2c3ccc(/C=C/c4ccccc4)c(=O)n3C[C@H]1[C@H](CO)[C@H]2C(=O)N1CCOCC1 | 3520 nM
27 | COCC(=O)N1[C@@H]2c3ccc(/C=C/c4ccccc4)c(=O)n3C[C@H]1[C@H](CO)[C@H]2C(=O)N1CCOCC1 | 1500 nM
28 | COc1ccc(CNCc2c(O)c(Cl)cc3c(C)c(C)c(=O)oc23)c(OC)c1 | 1030 nM
29 | Cc1c(CC(=O)N2CCN(C(=O)C3COc4ccccc4O3)CC2)c(=O)oc2cc(O)c(Cl)cc12 (centres undefined) | 1520 nM
30 | O=C(NCC1CC1)[C@H]1[C@H](CO)[C@H]2Cn3c(ccc(/C=C/c4ccccc4)c3=O)[C@@H]1N2C(=O)C1CC1 | 1770 nM

Same assay, conditions: recombinant ERAP2, Arg-AMC cleavage fluorescence, 1 h; at 2.6 µM (top of the series)

Row | Compound | activation
31 | C[C@@H]1CCCCO[C@@H](CN(C)C(=O)CCC(F)(F)F)[C@@H](C)CN([C@@H](C)CO)C(=O)c2cc(NS(=O)(=O)c3ccccc3)ccc2O1 | 14.4% (inactive)

Same assay, conditions: recombinant ERAP2, Arg-AMC cleavage fluorescence, 1 h; at 5.6 µM (top of the series)

Row | Compound | activation
32 | C[C@@H]1CCCCO[C@@H](CN(C)Cc2ccc3c(c2)OCO3)[C@@H](C)CN([C@@H](C)CO)C(=O)c2cc(NS(=O)(=O)c3ccccc3)ccc2O1 | 12.7% (inactive)
33 | COc1ccc(S(=O)(=O)N(C)C[C@@H]2Oc3ncccc3C(=O)N([C@H](C)CO)C[C@@H]2C)cc1 | 11.3% (inactive)

Same assay, conditions: recombinant ERAP2, Arg-AMC cleavage fluorescence, 1 h; at 10 µM (top of the series)

Row | Compound | activation
34 | CCCN(C)C[C@@H]1OCCCC[C@@H](C)Oc2ccc(NS(=O)(=O)c3c(C)noc3C)cc2C(=O)N([C@H](C)CO)C[C@@H]1C | -3.16% (inactive)
35 | C[C@@H]1CCCCO[C@@H](CN(C)C)[C@H](C)CN([C@@H](C)CO)C(=O)c2cc(NC(=O)Nc3ccc(C(F)(F)F)cc3)ccc2O1 | 14.3% (inactive)
36 | CCCN(C)C[C@@H]1OCCCC[C@@H](C)Oc2ccc(NS(=O)(=O)c3ccc(C)cc3)cc2C(=O)N([C@H](C)CO)C[C@@H]1C | 6.04% (inactive)

Same assay, conditions: recombinant ERAP2, Arg-AMC cleavage fluorescence, 1 h; at 11 µM (top of the series)

Row | Compound | activation
37 | COc1ccc(CN(C)C[C@@H]2OCCCC[C@@H](C)Oc3ccc(NS(=O)(=O)c4cccs4)cc3C(=O)N([C@H](C)CO)C[C@H]2C)cc1 | 1.04% (inactive)
38 | C[C@H](CO)N1C[C@H](C)[C@H](CN(C)CC2CCCCC2)Oc2c(NC(=O)Nc3ccc(C(F)(F)F)cc3)cccc2C1=O | 11.4% (inactive)
39 | COc1ccc(NC(=O)Nc2cccc3c2O[C@H](CN(C)Cc2ccc(C(=O)O)cc2)[C@H](C)CN([C@H](C)CO)C3=O)cc1 | 15.1% (inactive)
40 | CCN(CCCl)c1cc(CN(C)C)cc(NC(=O)c2ccc(C(=O)Nc3cc(CN(C)C)cc(N(CC)CCCl)c3)cc2)c1 | -8.9% (inactive)
41 | C[C@@H]1CCCCO[C@@H](CN(C)Cc2ccccc2)[C@H](C)CN([C@H](C)CO)C(=O)c2cc(NS(=O)(=O)c3cccs3)ccc2O1 | 6.39% (inactive)
42 | O=C(CSc1cn[nH]n1)Nc1cccc(C(=O)O)c1 | 13.8% (inactive)
43 | COc1ccc(S(=O)(=O)Nc2ccc3c(c2)C(=O)N([C@@H](C)CO)C[C@H](C)[C@H](CN(C)C)OCCCC[C@@H](C)O3)cc1 | 5.02% (inactive)
44 | C[C@@H]1CCCCO[C@@H](CN(C)Cc2ccc(C(=O)O)cc2)[C@@H](C)CN([C@H](C)CO)C(=O)c2cc(NC(=O)Nc3cccc4ccccc34)ccc2O1 | 5.34% (inactive)
45 | C[C@@H]1CCCCO[C@@H](CN(C)C)[C@@H](C)CN([C@@H](C)CO)C(=O)c2cc(NS(=O)(=O)c3ccc(F)cc3)ccc2O1 | 5.3% (inactive)
46 | C[C@H]1CN([C@@H](C)CO)C(=O)c2cccc(NC(=O)Nc3ccc(F)cc3)c2O[C@@H]1CN(C)C(=O)Nc1ccc2c(c1)OCO2 | 18.2% (inactive)
47 | CCCN(C)C[C@@H]1OCCCC[C@@H](C)Oc2ccc(NS(=O)(=O)c3ccccc3)cc2C(=O)N([C@H](C)CO)C[C@@H]1C | 16% (inactive)
48 | CO[C@@H]1CN(C)C(=O)c2ccc(NC(=O)Nc3cccc(Cl)c3)cc2OC[C@@H](C)NC[C@H]1C | 3.9% (inactive)
49 | COc1ccc(CN(C)C[C@@H]2OCCCC[C@@H](C)Oc3ccc(NS(=O)(=O)c4c(C)noc4C)cc3C(=O)N([C@@H](C)CO)C[C@@H]2C)cc1 | -1% (inactive)
50 | CCCN(C)C[C@@H]1OCCCC[C@@H](C)Oc2ccc(NS(=O)(=O)c3cccs3)cc2C(=O)N([C@H](C)CO)C[C@@H]1C | 11% (inactive)
51 | O=C(O)c1ccccc1NS(=O)(=O)c1cccc(-n2sc3ccccc3c2=O)c1 | 3.47% (inactive)
52 | C[C@@H]1CN([C@H](C)CO)C(=O)c2cccc(NC(=O)Nc3ccccc3)c2O[C@@H]1CN(C)Cc1ccc(C(=O)O)cc1 | 23.3% (inactive)
53 | COc1ccc(CN(C)C[C@H]2OCCCC[C@@H](C)Oc3ccc(NS(=O)(=O)c4cccs4)cc3C(=O)N([C@@H](C)CO)C[C@H]2C)cc1 | 2.79% (inactive)

Row | Compound | activation
54 | COc1ccc(CN(C)C[C@H]2OCCCC[C@@H](C)Oc3ccc(NS(=O)(=O)c4cccs4)cc3C(=O)N([C@H](C)CO)C[C@H]2C)cc1 | 3.67% (inactive)
55 | Cc1noc(C)c1NC(=O)N(C)C[C@@H]1Oc2c(NC(=O)Nc3ccccc3)cccc2C(=O)N([C@H](C)CO)C[C@@H]1C | 10.6% (inactive)
56 | Cc1cc(=O)oc2c(CN3CCN(C)CC3)c(O)c(Cl)cc12 | 12% (inactive)
57 | C[C@H]1CN([C@@H](C)CO)C(=O)c2cccc(NC(=O)Nc3ccc(C(F)(F)F)cc3)c2O[C@@H]1CN(C)C | 2.76% (inactive)
58 | O=C(O)c1cccc(NC(=O)c2ccccc2NC(=O)c2cccc([N+](=O)[O-])c2)c1 | 15.7% (inactive)
59 | C[C@@H]1CCCCO[C@@H](CN(C)Cc2ccc(C(=O)O)cc2)[C@H](C)CN([C@@H](C)CO)C(=O)c2cc(NS(=O)(=O)c3ccc(Cl)cc3)ccc2O1 | 24.2% (inactive)
60 | Cc1ccc(S(=O)(=O)Nc2ccc3c(c2)C(=O)N([C@@H](C)CO)C[C@H](C)[C@H](CN(C)C)OCCCC[C@@H](C)O3)cc1 | 14.1% (inactive)
61 | COC(=O)[C@H]1[C@H](CO)[C@H]2Cn3c(ccc(-c4ccncc4)c3=O)[C@H]2N1Cc1ccccc1F | 15.2% (inactive)
62 | C[C@@H]1CCCCO[C@H](CN(C)Cc2ccc(C(=O)O)cc2)[C@@H](C)CN([C@H](C)CO)C(=O)c2cc(NC(=O)Nc3ccc(C(F)(F)F)cc3)ccc2O1 | 2.62% (inactive)
63 | COc1ccc(CN(C)C[C@@H]2OCCCC[C@H](C)Oc3ccc(NS(=O)(=O)c4cccs4)cc3C(=O)N([C@H](C)CO)C[C@@H]2C)cc1 | 10.2% (inactive)
64 | CCCN(C)C[C@@H]1OCCCC[C@@H](C)Oc2ccc(NS(=O)(=O)c3ccc(F)cc3)cc2C(=O)N([C@H](C)CO)C[C@@H]1C | 10.6% (inactive)
65 | C[C@@H]1CCCCO[C@H](CN(C)Cc2ccc(C(=O)O)cc2)[C@H](C)CN([C@@H](C)CO)C(=O)c2cc(NC(=O)Nc3ccc(C(F)(F)F)cc3)ccc2O1 | 11.3% (inactive)
66 | COc1ccc(NC(=O)Nc2ccc3c(c2)C(=O)N([C@H](C)CO)C[C@@H](C)[C@H](CN(C)Cc2ccc(C(=O)O)cc2)OCCCC[C@@H](C)O3)cc1 | 12.3% (inactive)
67 | N#Cc1c(N2CCNCC2)nc(-c2ccco2)c2c1CCCC2 | 31.3% (inactive)
68 | Cc1noc(C)c1S(=O)(=O)Nc1ccc2c(c1)C(=O)N([C@H](C)CO)C[C@@H](C)[C@@H](CN(C)CC1CCCCC1)OCCCC[C@@H](C)O2 | 1.44% (inactive)
69 | COc1ccc(NC(=O)Nc2ccc3c(c2)C(=O)N([C@@H](C)CO)C[C@@H](C)[C@H](CN(C)Cc2ccc(C(=O)O)cc2)OCCCC[C@H](C)O3)cc1 | 37.6% (inactive)
